Measurements as given in ChEMBL document CHEMBL1201862, “PubChem BioAssay data set” (2004).
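Briefly, cells in 96-well plates were exposed to five compound concentrations for 48 h, and endpoints were estimated by linear interpolation. Here, GI50 denotes the concentration required for 50% inhibition of growth.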 The source made the active and inactive calls. Rule as the data show it: active = GI50 up to about 1.1 µM and inactive = higher.

Key:
Experiment in all cases: NCI-60 cell line screen, 48 h
[1] = tested on: SK-MEL-5
[2] = tested on: 786-0
[3] = tested on: NCI-H226
[4] = tested on: HCT-116
[5] = tested on: OVCAR-5
[6] = tested on: SN12C
[7] = tested on: K562
[8] = tested on: DU-145
[9] = tested on: HOP-92
[10] = tested on: SNB-75
[11] = tested on: CCRF-CEM
[12] = tested on: MDA-MB-231
[13] = tested on: COLO 205
[14] = tested on: SF-268
[15] = tested on: IGROV-1
[16] = tested on: SK-MEL-28
[17] = tested on: ACHN

Row | Structure (SMILES) | GI50 [1] | GI50 [2] | GI50 [3] | GI50 [4] | GI50 [5] | GI50 [6] | GI50 [7] | GI50 [8] | GI50 [9] | GI50 [10] | GI50 [11] | GI50 [12] | GI50 [13] | GI50 [14] | GI50 [15] | GI50 [16] | GI50 [17]
1 | O=S(=O)(c1ccc(Br)cc1)N1CCN(S(=O)(=O)c2ccc(Br)cc2)CC1 | > 100 µM (inactive) | > 100 µM (inactive) | > 100 µM (inactive) | > 100 µM (inactive) | > 100 µM (inactive) | > 100 µM (inactive) | 5.87 µM (inactive) | > 100 µM (inactive) | > 100 µM (inactive) | > 100 µM (inactive) | > 100 µM (inactive) | > 100 µM (inactive) | > 100 µM (inactive) | > 100 µM (inactive) | > 100 µM (inactive) | > 100 µM (inactive) | > 100 µM (inactive)
2 | C/C(=N\Nc1cc(CN2CCCC2)c(-c2ccc(Cl)cc2)nn1)C(=O)O | > 100 µM (inactive) | > 100 µM (inactive) | > 100 µM (inactive) | > 100 µM (inactive) | > 100 µM (inactive) | > 100 µM (inactive) | > 100 µM (inactive) | > 100 µM (inactive) | > 100 µM (inactive) | > 100 µM (inactive) | > 100 µM (inactive) | > 100 µM (inactive) | > 100 µM (inactive) | > 100 µM (inactive) | > 100 µM (inactive) | > 100 µM (inactive) | > 100 µM (inactive)
3 | O=c1ccc(=O)c2c1c1[nH]c3ccccc3c1c1c(=O)c3ccccc3c(=O)c21 | > 10 µM (inactive) | > 10 µM (inactive) | > 10 µM (inactive) | > 10 µM (inactive) | > 10 µM (inactive) | > 10 µM (inactive) | 5.32 µM (inactive) | > 10 µM (inactive) | 0.333 µM (active) | > 10 µM (inactive) | 3.19 µM (inactive) | 5.36 µM (inactive) | > 10 µM (inactive) | > 10 µM (inactive) | > 10 µM (inactive) | > 10 µM (inactive) | > 10 µM (inactive)
4 | CC1(C)OC2[C@@H](CO[C@@]3([C@@H](O)CCO)OC(C)(C)O[C@@H]23)O1 (stereo partly specified) | > 100 µM (inactive) | > 100 µM (inactive) | > 100 µM (inactive) | > 100 µM (inactive) | > 100 µM (inactive) | > 100 µM (inactive) | > 100 µM (inactive) | > 100 µM (inactive) | > 100 µM (inactive) | > 100 µM (inactive) | > 100 µM (inactive) | > 100 µM (inactive) | > 100 µM (inactive) | > 100 µM (inactive) | > 100 µM (inactive) | > 100 µM (inactive) | > 100 µM (inactive)
5 | O=C(O)c1cc(/N=C/c2ccccc2O)cc(C(=O)O)c1 | > 100 µM (inactive) | > 100 µM (inactive) | > 100 µM (inactive) | > 100 µM (inactive) | > 100 µM (inactive) | > 100 µM (inactive) | > 100 µM (inactive) | > 100 µM (inactive) | > 100 µM (inactive) | > 100 µM (inactive) | > 100 µM (inactive) | > 100 µM (inactive) | > 100 µM (inactive) | > 100 µM (inactive) | > 100 µM (inactive) | > 100 µM (inactive) | > 100 µM (inactive)
6 | c1ccc(COC[C@H]2C3OCC([C@H](OCc4ccccc4)[C@H]3OCc3ccccc3)N2Cc2ccccc2)cc1 (stereo partly specified) | 30.8 µM (inactive) | > 50.1 µM (inactive) | 17.7 µM (inactive) | 23.5 µM (inactive) | > 52.4 µM (inactive) | > 49 µM (inactive) | 12.4 µM (inactive) | > 48.2 µM (inactive) | > 57.1 µM (inactive) | 21.1 µM (inactive) | 27.1 µM (inactive) | > 49.2 µM (inactive) | > 57 µM (inactive) | > 54.3 µM (inactive) | 43 µM (inactive) | > 53.2 µM (inactive) | > 56.2 µM (inactive)
7 | CCCCCNc1nonc1N | > 100 µM (inactive) | > 100 µM (inactive) | > 100 µM (inactive) | > 100 µM (inactive) | > 100 µM (inactive) | > 100 µM (inactive) | > 100 µM (inactive) | > 100 µM (inactive) | > 100 µM (inactive) | > 100 µM (inactive) | > 31.6 µM (inactive) | > 100 µM (inactive) | > 100 µM (inactive) | > 100 µM (inactive) | > 100 µM (inactive) | > 100 µM (inactive) | > 100 µM (inactive)
8 | O=C(/C=C/c1ccccc1)CCN1CCCCC1 | 32.8 µM (inactive) | 20.5 µM (inactive) | > 100 µM (inactive) | 17.4 µM (inactive) | > 100 µM (inactive) | 20.3 µM (inactive) | 40.1 µM (inactive) | > 100 µM (inactive) | > 100 µM (inactive) | 36.8 µM (inactive) | 39.4 µM (inactive) | 26 µM (inactive) | 18 µM (inactive) | 42.5 µM (inactive) | 43.1 µM (inactive) | 24.2 µM (inactive) | 84.7 µM (inactive)
